Measured values from ChEMBL document CHEMBL1147300, “Plant antiviral agents, VI. Isolation of antiviral phenolic glucosides from Populus cultivar Beaupre by droplet counter-current chromatography” (1989).
Calls of active or inactive are those of the source. The calls are words filed in the database; no cut-off is given here.

Key:
Coxsackievirus [1] = experiment: Antiviral activity against Coxsackievirus infected in african green monkey Vero cells assessed as ratio of viral titer in absence to presence of compound at 5 ug/ml by 50% endpoint titration technique; assay type: functional
Measles morbillivirus = experiment: Antiviral activity against Measles virus infected in african green monkey Vero cells assessed as ratio of viral titer in absence to presence of compound at 500 ug/ml by 50% endpoint titration technique; assay type: functional, organism-based
Enterovirus C [2] = experiment: Antiviral activity against Poliovirus infected in african green monkey Vero cells assessed as ratio of viral titer in absence to presence of compound at 5 ug/ml by 50% endpoint titration technique; assay type: functional
Human alphaherpesvirus 1 = experiment: Antiviral activity against Herpes simplex virus type 1 infected in african green monkey Vero cells assessed as ratio of viral titer in absence to presence of compound at 500 ug/ml by 50% endpoint titration technique; assay type: functional, organism-based
Semliki Forest virus [3] = experiment: Antiviral activity against Semliki forest virus infected in african green monkey Vero cells assessed as ratio of viral titer in absence to presence of compound at 500 ug/ml by 50% endpoint titration technique; assay type: functional, organism-based
[4] = test system: Trichophyton mentagrophytes; experiment: Antifungal activity against Trichophyton mentagrophytes at 500 ug/ml; assay type: functional, organism-based
Enterovirus C [5] = experiment: Antiviral activity against Poliovirus infected in african green monkey Vero cells assessed as ratio of viral titer in absence to presence of compound at 25 ug/ml by 50% endpoint titration technique; assay type: functional
Microsporum canis = experiment: Antifungal activity against Microsporum canis at 500 ug/ml; assay type: functional, organism-based
Trichophyton rubrum = experiment: Antifungal activity against Trichophyton rubrum at 500 ug/ml; assay type: functional, organism-based
Coxsackievirus [6] = experiment: Antiviral activity against Coxsackievirus infected in african green monkey Vero cells assessed as ratio of viral titer in absence to presence of compound at 500 ug/ml by 50% endpoint titration technique; assay type: functional, organism-based
Semliki Forest virus [7] = experiment: Antiviral activity against Semliki forest virus infected in african green monkey Vero cells assessed as ratio of viral titer in absence to presence of compound at 50 ug/ml by 50% endpoint titration technique; assay type: functional
Aspergillus niger = experiment: Antifungal activity against Aspergillus niger at 500 ug/ml; assay type: functional, organism-based

SMILES	Ratio (Coxsackievirus [1])	Activity (Measles morbillivirus)	Ratio (Enterovirus C [2])	Activity (Human alphaherpesvirus 1)	Activity (Semliki Forest virus [3])	Activity [4]	Ratio (Enterovirus C [5])	Activity (Microsporum canis)	Activity (Trichophyton rubrum)	Activity (Coxsackievirus [6])	Ratio (Semliki Forest virus [7])	Activity (Aspergillus niger)
COc1c(-c2ccc(O)c(O)c2)oc2cc(O)cc(O)c2c1=O [3-O-METHYLQUERCETIN]	10000000	inactive	100000000	inactive	inactive	–	–	–	–	–	–	–
O=C(OCc1cc(O)ccc1O[C@@H]1O[C@H](CO)[C@@H](O)[C@H](O)[C@H]1O)c1ccccc1 [SALIREPOSIDE]	–	inactive	–	inactive	–	inactive	10000	inactive	inactive	inactive	10000	inactive
OCc1ccccc1O[C@@H]1O[C@H](CO)[C@@H](O)[C@H](O)[C@H]1O [SALICIN]	–	inactive	–	inactive	inactive	inactive	1000	inactive	inactive	inactive	–	inactive
